Results published in patent US20260226065A1, “SUBSTITUTED BENZENE COMPOUND” (DAIICHI SANKYO COMPANY, LIMITED, priority 2023, published 2026).
pIC50: −log10 of the molar value.

Biological target: T1, NLRP3 inflammasome (Homo sapiens, UniProt Q96P20)
T1 construct: endogenous in cells; host or cells: THP-1 (human monocyte-derived), PMA-differentiated, Nigericin-stimulated
Experiment: In vitro IL-1β production test (PMA-differentiated THP-1 cells, Nigericin stimulation, AlphaLISA)
Assay type: cell-based
Details: inhibition of IL-1β production; THP-1 cells differentiated with 200 nM PMA; 0.015 mM Nigericin; 2 hours
Method: Human monocyte-derived THP-1 cells were cultured for one day in 10% bovine serum-containing RPMI-1640 medium (Thermo #A10491-01) supplemented with 200 nM phorbol 12-myristate 13-acetate (PMA, Sigma #P8139) to induce differentiation.
NLRP3 inflammasome was induced by replacing the culture medium with bovine serum-free RPMI-1640 medium supplemented with 0.015 mM Nigericin (Sigma #SML1779) and the test compound of known concentrations.
After 2 hours, the culture medium supernatant was collected and the IL-1β protein concentration was measured using the AlphaLISA (registered trademark) assay (PerkinElmer #AL220C).
The IL-1β concentration without the addition of the test compound and with Nigericin stimulation was set as 0% inhibitory activity, and the IL-1β concentration without Nigericin stimulation was set as 100% inhibitory activity, and the inhibition rate (% inhibition) of the test compound at each added concentration was calculated.
The % inhibition value was subjected to sigmoid fitting using a logistic regression model to calculate the 50% inhibitory concentration (IC50 value).

T1 sequence (Q96P20 whole entry): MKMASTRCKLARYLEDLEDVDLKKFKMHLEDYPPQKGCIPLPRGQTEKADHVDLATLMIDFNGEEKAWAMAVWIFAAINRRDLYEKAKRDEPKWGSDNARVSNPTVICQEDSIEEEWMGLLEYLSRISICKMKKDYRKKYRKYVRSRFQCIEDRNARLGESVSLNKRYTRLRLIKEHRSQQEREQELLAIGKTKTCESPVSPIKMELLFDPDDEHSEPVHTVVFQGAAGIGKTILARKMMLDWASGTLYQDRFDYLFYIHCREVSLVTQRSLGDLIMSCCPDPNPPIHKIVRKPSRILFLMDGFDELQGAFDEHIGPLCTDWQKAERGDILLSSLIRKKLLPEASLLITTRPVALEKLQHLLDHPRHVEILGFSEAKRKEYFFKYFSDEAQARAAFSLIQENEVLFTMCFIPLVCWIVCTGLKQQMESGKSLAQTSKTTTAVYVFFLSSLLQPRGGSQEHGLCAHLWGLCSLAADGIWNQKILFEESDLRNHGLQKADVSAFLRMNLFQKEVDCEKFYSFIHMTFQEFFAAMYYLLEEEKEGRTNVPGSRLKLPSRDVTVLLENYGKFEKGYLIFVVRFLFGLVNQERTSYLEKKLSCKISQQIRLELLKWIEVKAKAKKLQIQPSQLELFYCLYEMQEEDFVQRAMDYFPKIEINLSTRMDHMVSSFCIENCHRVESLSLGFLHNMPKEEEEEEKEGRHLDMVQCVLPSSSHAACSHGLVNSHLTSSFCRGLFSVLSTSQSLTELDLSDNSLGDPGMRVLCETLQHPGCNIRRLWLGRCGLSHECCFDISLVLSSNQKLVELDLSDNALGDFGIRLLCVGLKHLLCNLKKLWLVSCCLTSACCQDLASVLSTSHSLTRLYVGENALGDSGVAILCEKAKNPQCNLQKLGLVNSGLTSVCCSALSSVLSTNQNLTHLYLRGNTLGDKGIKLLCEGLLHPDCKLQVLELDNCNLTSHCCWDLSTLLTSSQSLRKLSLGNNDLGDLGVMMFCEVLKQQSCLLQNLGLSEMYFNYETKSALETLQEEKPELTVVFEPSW

SMILES | pIC50
COc1cn(C23CCCC(O)(C2)C3)c2nnc(-c3c(C)cc(C(F)(F)F)cc3O)cc12 [Example 24, 5-{3-[2-hydroxy-6-methyl-4-(trifluoromethyl)phenyl]-5-methoxy-7H-pyrrolo[2,3-c]pyridazin-7-yl}bicyclo[3.1.1]heptan-1-ol] | 7.46
Cc1cc(C(F)(F)F)cc(O)c1-c1cc2c(nn1)N([C@@H]1CCCN(CC3CC3)C1)CC2 [Example 61, 2-{7-[(3R)-1-(cyclopropylmethyl)piperidin-3-yl]-6,7-dihydro-5H-pyrrolo[2,3-c]pyridazin-3-yl}-3-methyl-5-(trifluoromethyl)phenol] | 7.60
Cc1cc(C(F)(F)F)cc(O)c1-c1cc2c(nn1)N([C@@H]1CCCN(C)C1)CCC2 [Example 36, 3-methyl-2-{8-[(3R)-1-methylpiperidin-3-yl]-5,6,7,8-tetrahydropyrido[2,3-c]pyridazin-3-yl}-5-(trifluoromethyl)phenol] | 7.38
CCN1CCC[C@@H](n2cc(OC)c3cc(-c4c(C)cc(C(F)(F)F)cc4O)nnc32)C1 [Example 77, 2-{7-[(3R)-1-ethylpiperidin-3-yl]-5-methoxy-7H-pyrrolo[2,3-c]pyridazin-3-yl}-3-methyl-5-(trifluoromethyl)phenol] | 7.85
Cc1cc(C(C)(F)F)cc(O)c1-c1cc2c(C)cn([C@H]3C[C@@](C)(O)C3)c2nn1 [Example 69, 5-(1,1-difluoroethyl)-2-{7-[(1s,3s)-3-hydroxy-3-methylcyclobutyl]-5-methyl-7H-pyrrolo[2,3-c]pyridazin-3-yl}-3-methylphenol] | 7.32
CCN1CCC[C@@H](N2CCc3cc(-c4c(C)cc(OC(F)(F)F)cc4O)nnc32)C1 [Example 23, 2-{7-[(3R)-1-ethylpiperidin-3-yl]-6,7-dihydro-5H-pyrrolo[2,3-c]pyridazin-3-yl}-3-methyl-5-(trifluoromethoxy) phenol] | 7.93
Cc1cc(C(F)(F)F)cc(O)c1-c1cc2c(C#N)cn(C34CCCC(O)(C3)C4)c2nn1 [Example 16, 7-(5-hydroxybicyclo[3.1.1]heptan-1-yl)-3-[2-hydroxy-6-methyl-4-(trifluoromethyl)phenyl]-7H-pyrrolo[2,3-c]pyridazine-5-carbonitrile] | 8.07
Cc1cc(C(F)(F)F)cc(O)c1-c1cc2c(nn1)N([C@@H]1CC[C@@H]3CC[C@H]1N3C)CC2 (single isomer, unassigned) [Example 19, 3-methyl-2-{7-[(1R,2R,5S or 1,2S,5R)-8-methyl-8-azabicyclo[3.2.1]octan-2-yl]-6,7-dihydro-5H-pyrrolo[2,3-c]pyridazin-3-yl}-5-(trifluoromethyl)phenol] | 8.00
Cc1cc(C(F)(F)F)cc(O)c1-c1cc2c(C3CC3)cn([C@H]3C[C@@](C)(O)C3)c2nn1 [Example 46, 2-[5-cyclopropyl-7-[(1s,3s)-3-hydroxy-3-methylcyclobutyl]-7H-pyrrolo[2,3-c]pyridazin-3-yl]-3-methyl-5-(trifluoromethyl)phenol] | 7.04
Cc1cc(C(F)(F)F)cc(O)c1-c1cc2cccc([C@@H]3CCCN(C)C3)c2nn1 (single isomer, unassigned) [Example 96, 3-methyl-2-{8-[(3R or 3S)-1-methylpiperidin-3-yl]cinnolin-3-yl}-5-(trifluoromethyl)phenol] | 7.94
Cc1cc(Cl)cc(O)c1-c1cc2c3c(n([C@H]4C[C@@](C)(O)C4)c2nn1)CCC3 [Example 82, 5-chloro-2-{8-[(1s,3s)-3-hydroxy-3-methylcyclobutyl]-5,6,7,8-tetrahydrocyclopenta[4,5]pyrrolo[2,3-c]pyridazin-3-yl}-3-methylphenol] | 8.11
Cc1cc(C(F)(F)F)cc(O)c1-c1cc2c(C(F)(F)F)cn([C@H]3C[C@@](C)(O)C3)c2nn1 [Example 59, 2-{7-[(1s,3s)-3-hydroxy-3-methylcyclobutyl]-5-(trifluoromethyl)-7H-pyrrolo[2,3-c]pyridazin-3-yl}-3-methyl-5-(trifluoromethyl)phenol] | 7.02
CCCN1CCC[C@@H](N2CCc3cc(-c4c(C)cc(C(F)(F)F)cc4O)nnc32)C1 [Example 14, 3-methyl-2-{7-[(3R)-1-propylpiperidin-3-yl]-6,7-dihydro-5H-pyrrolo[2,3-c]pyridazin-3-yl}-5-(trifluoromethyl)phenol] | 8.10
Cc1cc(OC(F)F)cc(O)c1-c1cc2c(C#N)cn([C@H]3C[C@@](C)(O)C3)c2nn1 [Example 74, 3-[4-(difluoromethoxy)-2-hydroxy-6-methylphenyl]-7-[(1s,3s)-3-hydroxy-3-methylcyclobutyl]-7H-pyrrolo[2,3-c]pyridazine-5-carbonitrile] | 7.58
CCN1CCC[C@@H](N2CCc3cc(-c4c(C)cc(C(F)(F)F)cc4O)nnc32)C1 [Example 11, 2-{7-[(3R)-1-ethylpiperidin-3-yl]-6,7-dihydro-5H-pyrrolo[2,3-c]pyridazin-3-yl}-3-methyl-5-(trifluoromethyl)phenol] | 8.14
Cc1cc(C(F)(F)F)cc(O)c1-c1cc2c(C#N)cn([C@H]3C[C@@](C)(O)C3)c2nn1 [Example 45, 7-[(1s,3s)-3-hydroxy-3-methylcyclobutyl]-3-[2-hydroxy-6-methyl-4-(trifluoromethyl)phenyl]-7H-pyrrolo[2,3-c]pyridazine-5-carbonitrile] | 8.06
Cc1cc(C(F)(F)F)cc(O)c1-c1cc2c(nn1)N([C@H]1C[C@@](C)(O)C1)CC2C (mixture of isomers) [Example 85, 2-{7-[(1s,3s)-3-hydroxy-3-methylcyclobutyl]-5-methyl-6,7-dihydro-5H-pyrrolo[2,3-c]pyridazin-3-yl}-3-methyl-5-(trifluoromethyl)phenol] | 7.18
CCN1CCC[C@@H](c2cccc3cc(-c4c(C)cc(C(F)(F)F)cc4O)nnc23)C1 (single isomer, unassigned) [Example 97, 2-{8-[(3R or 3S)-1-ethylpiperidin-3-yl]cinnolin-3-yl}-3-methyl-5-(trifluoromethyl)phenol] | 8.08
Cc1cc(C(F)(F)F)cc(O)c1-c1cc2c(nn1)N([C@@H]1CCCN(C)C1)C[C@@H]2C (single isomer, unassigned) [Example 34, 3-methyl-2-{(5R or 5S)-5-methyl-7-[(3R)-1-methylpiperidin-3-yl]-6,7-dihydro-5H-pyrrolo[2,3-c]pyridazin-3-yl}-5-(trifluoromethyl)phenol] | 8.04
Cc1cc(C(F)(F)F)cc(O)c1-c1cc2cnn(C3CCCN(C)C3)c2nn1 (racemic) [Example 31, 3-methyl-2-[1-(1-methylpiperidin-3-yl)-1H-pyrazolo[3,4-c]pyridazin-5-yl]-5-(trifluoromethyl)phenol] | 6.38
Cc1cn([C@H]2C[C@@](C)(O)C2)c2nnc(-c3c(O)cc(Cl)cc3Cl)cc12 [Example 63, 3,5-dichloro-2-{7-[(1s,3s)-3-hydroxy-3-methylcyclobutyl]-5-methyl-7H-pyrrolo[2,3-c]pyridazin-3-yl}phenol] | 7.37
CCN1CCC[C@@H](n2cc(C)c3cc(-c4c(C)cc(OC(F)F)cc4O)nnc32)C1 [Example 71, 5-(difluoromethoxy)-2-{7-[(3R)-1-ethylpiperidin-3-yl]-5-methyl-7H-pyrrolo[2,3-c]pyridazin-3-yl}-3-methylphenol] | 8.09
Cc1cc(C)c(-c2cc3c(C)cn([C@H]4C[C@@](C)(O)C4)c3nn2)c(O)c1 [Example 90, 2-{7-[(1s,3s)-3-hydroxy-3-methylcyclobutyl]-5-methyl-7H-pyrrolo[2,3-c]pyridazin-3-yl}-3,5-dimethylphenol] | 7.25
